Here are results for three molecules from article PMC12147034, “Identification of alkynyl nicotinamide HSN748 as a RET solvent-front mutant inhibitor with intracranial efficacy” (RSC Medicinal Chemistry, 2025).

Holding throughout (format): cell-based
For experiment [1], the system named is B/KR(G810C/R/S) cells. Briefly: Cell viability assay, RET solvent-front mutants stated jointly. As to conditions: read-out: IC50s for B/KR(G810C/R/S) cells; stated jointly for G810C, G810R and G810S. The method, then:
(§1) BaF3 cell lines expressing a flag-tagged KIF5B-RET (B/KR) and the KIF5B-RET containing G810C, G810R, G810S, V804M, V804L mutations were as reported.[8,13,17,21–23] […] Infected cells were cultured for two weeks, and cells with high GFP intensity were sorted into a 96-well plate (1 cell/well). After the expansion of growing cell lines, they were screened for a high level of luciferase activity by luminescence imaging after exposure to D-luciferin. IMR-90 cells were from ATCC.
(§2) The TEL-VEGFR2 cDNA was then subcloned into pLentP lentiviral vector.[21] and BaF3/TEL-VEGFR2 (B/TV) cells were generated by infecting BaF3 cells with the lentiviral TEL-VEGFR2 as described. Cell viability assay was performed using CellTiter-Glo reagent (G7573, Promega, Madison, WI, USA) after 3 days of drug treatment as described for BaF3-derived cells and 5 days for IMR-90 cells.

Experiment [2] has as its target T1, B/KR(G810C) cells, KIF5B-RET G810C (Homo sapiens, UniProt P07949+P33176, G810C).
T1 construct: FLAG; expressed in transfected cells; host or cells: BaF3
T1 sequence (P07949 713-1063 G810C limits assumed): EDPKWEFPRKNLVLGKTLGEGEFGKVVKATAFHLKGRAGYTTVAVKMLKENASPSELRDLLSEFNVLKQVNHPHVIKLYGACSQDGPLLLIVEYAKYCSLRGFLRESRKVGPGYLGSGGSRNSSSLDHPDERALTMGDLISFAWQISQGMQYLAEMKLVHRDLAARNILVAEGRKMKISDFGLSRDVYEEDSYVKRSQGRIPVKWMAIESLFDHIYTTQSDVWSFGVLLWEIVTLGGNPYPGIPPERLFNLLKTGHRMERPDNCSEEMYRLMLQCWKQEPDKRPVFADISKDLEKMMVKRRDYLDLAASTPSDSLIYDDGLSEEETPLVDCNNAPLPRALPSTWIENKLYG
The experiment is described as follows: Cell viability assay (CellTiter-Glo, 3 days) in B/KR(G810C) cells. On the procedure:
as §1, §2
(In ATP-based viability assays light output follows the ATP content of the culture.)

The target in experiment [3] is T2, B/KR(V804M) cells, KIF5B-RET V804M (Homo sapiens, UniProt P07949+P33176, V804M).
T2 construct: FLAG; expressed in transfected cells; host or cells: BaF3
T2 sequence (P07949 713-1063 V804M limits assumed): T1 sequence (P07949 713-1063 G810C limits assumed) with V92M, C98G
The experiment is described as follows: Cell viability assay (CellTiter-Glo, 3 days) in B/KR(V804M) cells. On the procedure: as §1, §2

The target in experiment [4] is T3, B/KR(G810S) cells, KIF5B-RET G810S (Homo sapiens, UniProt P07949+P33176, G810S).
T3 construct: FLAG; expressed in transfected cells; host or cells: BaF3
T3 sequence (P07949 713-1063 G810S limits assumed): T1 sequence (P07949 713-1063 G810C limits assumed) with C98S
Briefly: Cell viability assay (CellTiter-Glo, 3 days) in B/KR(G810S) cells. On the procedure:
as §1, §2

Experiment [5] has as its target T4, B/KR(V804L) cells, KIF5B-RET V804L (Homo sapiens, UniProt P07949+P33176, V804L).
T4 construct: FLAG; expressed in transfected cells; host or cells: BaF3
T4 sequence (P07949 713-1063 V804L limits assumed): T1 sequence (P07949 713-1063 G810C limits assumed) with V92L, C98G
The experiment is described as follows: Cell viability assay (CellTiter-Glo, 3 days) in B/KR(V804L) cells. On the procedure:
as §1, §2

Experiment [6] deals with BaF3/TEL-VEGFR2 (B/TV) cells. Briefly: Cell viability assay (CellTiter-Glo, 3 days) in B/TV cells. As to conditions: ratio of B/TV IC50 to B/KR WT IC50. The method, then: as §2
Experiment [7] concerns the target T5, BaF3/TEL-VEGFR2 (B/TV) cells (Homo sapiens, UniProt P35968+P41212).
T5 construct: fused to VEGFR2 (KDR) amino acids 807–1356; TEL (ETV6) amino acids 1–336 (N-terminal fusion partner); FLAG; expressed in transfected cells; host or cells: BaF3 (lentiviral pLentP TEL-VEGFR2)
Described as above. The note with it: TEL-VEGFR2-dependent BaF3 cells, 3 days; read-out: IC50 B/TV WT. The method, then:
as §2

Positions count from the first letter of the chain named. Several values for one entry are separate records, joined by “and”; a condition that tells them apart may be missing. Equal values may be shown once.

T5 sequence (P41212+P35968 fused): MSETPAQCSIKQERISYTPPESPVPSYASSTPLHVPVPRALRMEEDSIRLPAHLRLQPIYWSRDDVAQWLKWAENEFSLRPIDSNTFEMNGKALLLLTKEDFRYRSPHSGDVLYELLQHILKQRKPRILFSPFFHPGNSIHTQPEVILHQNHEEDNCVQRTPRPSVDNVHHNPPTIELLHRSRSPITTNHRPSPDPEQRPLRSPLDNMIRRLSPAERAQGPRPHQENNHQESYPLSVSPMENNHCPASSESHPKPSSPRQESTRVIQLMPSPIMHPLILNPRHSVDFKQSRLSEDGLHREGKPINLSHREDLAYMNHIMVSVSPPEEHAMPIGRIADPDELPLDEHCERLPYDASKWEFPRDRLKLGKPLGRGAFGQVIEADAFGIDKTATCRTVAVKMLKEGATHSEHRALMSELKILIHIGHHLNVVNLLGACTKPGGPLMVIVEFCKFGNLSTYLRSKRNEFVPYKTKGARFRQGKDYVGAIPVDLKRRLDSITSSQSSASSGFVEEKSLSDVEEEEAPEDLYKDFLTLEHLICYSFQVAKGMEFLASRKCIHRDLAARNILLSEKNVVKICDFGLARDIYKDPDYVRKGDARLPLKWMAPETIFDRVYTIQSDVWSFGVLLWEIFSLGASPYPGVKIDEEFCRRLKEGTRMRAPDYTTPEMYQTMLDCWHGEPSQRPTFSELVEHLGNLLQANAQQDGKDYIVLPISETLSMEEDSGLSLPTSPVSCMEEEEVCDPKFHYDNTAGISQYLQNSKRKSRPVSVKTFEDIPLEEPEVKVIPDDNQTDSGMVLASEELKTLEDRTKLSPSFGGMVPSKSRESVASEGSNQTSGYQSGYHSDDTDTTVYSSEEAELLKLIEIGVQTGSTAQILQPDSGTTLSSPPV

On to `Cc1n[nH]c2ncc(C#Cc3cncc(C(=O)Nc4ccc(CN5CCN(C)CC5)c(C(F)(F)F)c4)c3)cc12` [HSND19, 5-((3-Methyl-1H-pyrazolo[3,4-b]pyridin-5-yl)ethynyl)-N-(4-((4-methylpiperazin-1-yl)methyl)-3-(trifluoromethyl)phenyl)nicotinamide], for which the IC50 in experiment [1] was < 33 nM; in experiment [2], 9.08 ± 1.63 nM; in experiment [3], 6.52 ± 0.45 nM; in experiment [4], 4 ± 0.16 nM; in experiment [5] it was 20.6 ± 2.22 nM; in experiment [7], 5.56 ± 1.11 nM. The “VEGFR2/RET (fold)” value in experiment [6] was 2.85 fold.

On to `CN1CCN(Cc2ccc(NC(=O)c3cncc(C#Cc4cnc5cccnn45)c3)cc2C(F)(F)F)CC1` [HSN748], for which the IC50 in experiment [1] was < 33 nM; in experiment [2] it was 7.93 ± 0.33 nM; in experiment [3] it was 88 nM and 88.2 nM; in experiment [4] it was 13.9 ± 0.32 nM; in experiment [5], 55 nM and 55.7 nM; in experiment [7] it was 7.34 ± 0.09 nM. Besides, the “VEGFR2/RET (fold)” value in experiment [6] is given as 1.81 fold.

In the case of `CCOc1ccc2ncc(C#Cc3cncc(C(=O)Nc4ccc(CN5CCN(C)CC5)c(C(F)(F)F)c4)c3)n2n1` [HSND14, 5-((6-Ethoxyimidazo[1,2-b]pyridazin-3-yl)ethynyl)-N-(4-((4-methylpiperazin-1-yl)methyl)-3-(trifluoromethyl)phenyl)nicotinamide], the IC50 was < 33 nM in experiment [1]; 15.9 ± 0.72 nM in experiment [2]; 20 ± 0.89 nM in experiment [3]; 5.21 ± 0.15 nM in experiment [4]; 30 ± 1.2 nM in experiment [5]; 6.88 ± 0.15 nM in experiment [7]. Besides, the “VEGFR2/RET (fold)” value in experiment [6] came to 1.71 fold.
